Source: patent US6667337B2, “Combination therapy for cancer” (Cancer Research Technology Limited, priority 2000, dated 2003)

Key:
[1] = Host toxicity (lethality, body weight 4-5 days after drug treatment); assay type: in vivo, female C3H/HeN mice
Description: (§1) Murine mammary carcinoma MDAH—MCa-4 tumours were grown in female C3H/HeN mice from stocks stored in liquid nitrogen at the sixth transplant generation, and were passaged and used for experiments at the eighth transplant generation. Tumours for experiments were grown by inoculating 20 μl of cell suspension (5 mg packed cells) intramuscularly in the right gastrocenmius muscle. Animals were randomised to treatment groups, and treated with drugs when the dliameter of the tumour-bearing leg reached 10-11 mm (ca 0.6 g tumour), approximately 18 days after inoculation. […] Both compounds were administered essentially at the same time (within 1 min). Host toxicity was assessed by determination of lethality, and by measurement of body weight 4-5 days after drug treatment. The diameter of the tumour-bearing leg was measured three times weekly until values exceeded 13 mm (ca 1.4 g tumour) at which time the animals were terminated. The growth curve for each individual tumour was plotted as in FIG. 1, and the time-to-endpoint (TTE, time from treatment to endpoint) was determined for each mouse. The median and mean TTE was determined for each treatment group. The mean tumour growth delay for each group was calculated as the difference between mean TTE for treated and control groups. The statistical significance of the antitumour effects was tested using ANOVA followed by Dunnett's test to determine p values for the significance of differences between individual groups.

[2] = test system: Murine mammary carcinoma MDAH-MCa-4 tumours; test: Antitumour activity (tumour growth delay, cures) against MDAH-MCa-4 tumour; assay type: in vivo, female C3H/HeN mice; settings: for Growth delay (days) Median: interim analysis
Description: as §1

[3] = DMXAA 80 μmol/kg alone, group 120/B
[4] = paclitaxel 23.7 μmol/kg alone, group 120/C

| SMILES | % Body weight change (d4-5) Mean [1, 3] [%] | Growth delay (days) Median [2, 3] [days] | % Body weight change (d4-5) Mean [1, 4] [%] | Number of mice Deaths ([1]; paclitaxel 23.7 μmol/kg alone, group 120/C, 7 mice treated, interim analysis) | host toxicity (in words) ([1]; paclitaxel alone, 42 μmol/kg) | Growth delay (days) Median [2, 4] [days] | antitumour activity (in words) ([2]; paclitaxel alone, up to 42 μmol/kg) |
| --- | --- | --- | --- | --- | --- | --- | --- |
| Cc1ccc2c(=O)c3cccc(CC(=O)O)c3oc2c1C [DMXAA, 5,6-dimethylxanthenone-4-acetic acid] | −6.0 | 17.9 |  |  |  |  |  |
| CC(=O)O[C@H]1C(=O)[C@@]2(C)[C@H]([C@H](OC(=O)c3ccccc3)[C@]3(O)C[C@H](OC(=O)[C@H](O)[C@@H](NC(=O)c4ccccc4)c4ccccc4)C(C)=C1C3(C)C)[C@]1(OC(C)=O)CO[C@@H]1C[C@@H]2O [Paclitaxel, paclitaxel] |  |  | −0.1 | 1 | not demonstrably toxic | 3.5 | little antitumour activity |
